In patent publication US20230087766A1, “METHODS OF REACTIVATING LATENT HUMAN IMMUNODEFICIENCY VIRUS AND RELATED COMPOSITIONS” (priority 2017, published 2023):

Experiments:
Assay type in all cases: cell-based
[1] = test system: latent HIV in primary CD4+ T cells from HIV-infected patients under suppressive ART; assay: HIV transcription by ddPCR in primary CD4+ T cells from HIV-infected patients; conditions: primary CD4+ T cells of 6 patients; 40 mM Na-Cro or 12 nM PEP005; 6 hours; ddPCR
Description: Panels A-C illustrate that primary CD4+ T cells were treated with […] PMA 2 plus 2 μg/ml ionomycin, 12 nM PEP005, 40 mM Na-Cro, or 12 nM PEP005 combined with 40 mM Na-Cro for 6 hours. Viral transcription from total RNA was analyzed by RT-ddPCR with primers targeting initiation (TAR region) (see panel A), elongation (long LTR) (see panel B), or full transcription (poly A region) (see panel C) of the HIV genome. Panel D illustrates a working model of epigenetic regulation of HIV latency/transcription by histone crotonylation.
To validate this finding in the ex vivo primary CD4+ T cells from patients the peripheral blood samples from 6 HIV-infected patients under suppressive ART were obtained. They had undetectable plasma viral load (<20 copies/ml plasma) and >400 CD4+ T cell number per […] (see Table 1). Primary CD4+ T cells were treated with PMA/Ionomycin, PEP005, Na-Cro, or PEP005 in combination with Na-Cro for 6 hours. HIV transcription following reactivation was measured by digital droplet PCR (ddPCR) targeting TAR region (initiation), long LTR region (elongation), or Poly A region (full transcription) of HIV genome (see G. Jiang, et al. PLoS pathogens 11, e1005066 (2015); P. Kaiser, et al. Journal of virological methods 242, 1-8 (2017); and L. Shan, et al. Journal of Virology 87, 6521-6525 (2013)).
Primary CD4+ T Cell Isolation, Treatment, and Digital Droplet PCR Assays: Peripheral blood samples were obtained from HIV-infected individuals (age ranging from 46-62 years old) on suppressive ART for >8 years (n=6). The plasma viral loads were below the detective level (<20 copies/ml plasma) and the average CD4+ T cell number was 664.4±180.5 cells/ml. The primary CD4+ T cells were isolated using the EASYSEP™ kit ([…]™ Technologies Inc., Vancouver, BC, Canada) as previously described (see G. Jiang, et al. PLoS pathogens 11, el 005066 (2015) and G. Jiang, et al. AIDS 28, 1555-1566 (2014)). The purified CD4+ T cells were plated at a density of 0.5-1×10^6 cells and treated with Control, 200 ng/ml PMA plus 2 μM lonomycin, 12 nM PEP005, 40 mM Na-Cro, or 12 nM PEP005 plus 40 mM Na-Cro for 6 hours. Cell pellets were collected for RNA isolation. Initiation, elongation, or full transcription of HIV was analyzed with ddPCR assays as reported before (see G. Jiang, et al. PLoS pathogens 11, e1005066 (2015); P. Kaiser, et al. Journal of virological methods 242, 1-8 (2017); and L. Shan, et al. Journal of virology 87, 6521-6525 (2013)).

[2] = test system: latent HIV (HIV LTR-driven transcription) in J-Lat A1 cells
Description: Cell culture: J-Lat Al cells (derived from Jurkat cells harboring HIV LTR-Tat-GFP gene) and U1 cells (promonocytic cell line harboring one copy of HIV genome with defective tat gene) were obtained from NIH AIDS Reagent Program and cultured at 37° C. with 5% CO2 in RPM11640 medium containing 10% FBS and 1% penicillin-streptomycin as previously described (see G. Jiang, et al. PLoS Pathogens 11, e1005066 (2015)).
For inhibiting ACSS2 and crotonylation, cells were pretreated with ACSS2 inhibitor, AR12 (SELLECK CHEMICALS™, Houston, Tex.), for 30 minutes, followed by Na-Cro treatment for 4 or 18 hours.
Real-Time PCR Analysis: HIV gene expression was measured using real-time PCR in J-Lat Al cells treated with LRAs. Total nucleic acid was extracted using RNEASY™ Kit, genomic DNA digested using DNase I and total RNA reverse transcribed using Superscript III to synthesize cDNA. […] […] TAMRA-3′ (SEQ ID NO:3).

ACSS2 = ACSS2 expression in J-Lat A1 cells; conditions: Na-Cro treatment
Source text: FIG. 3 is a series of graphs showing that suppression of acetyl-CoA synthetase 2 (ACSS2) enzyme disrupts crotonyl-CoA induced reactivation of latent HIV. Panel A illustrates that Na-Cro addition to J-Lat Al cells increased expression of ACSS2 enzyme. **, p<0.01 compared with control treatment. Panel B illustrates expression of ACSS2 after ACSS2 siRNA knockdown in TZM-bl HIV reporter cells. **, p<0.01 compared with control siRNA. Panel C illustrates knockdown of ACSS2 decreased Na-Cro-driven HIV transcription. *, p<0.05 compared with control siRNA. Panels D and E illustrate that pretreatment with ACSS2 inhibitor, AR12, dampens reactivation of latent HIV (see panel D) by inhibition of histone crotonylation (see panel E) at the HIV LTR. **, p<0.01 and ***, p<0.001, compared with control treatment. ##, p<0.01 and ###, p<0.001 compared with Na-Cro treatment.

In the case of `C/C=C/C(=O)[O-].[Na+]` [Na-Cro, sodium crotonate], the “elongation of HIV transcripts (long LTR), patients responding” value [1] is reported as “all 6 patients”, the “full-length transcription of HIV (poly A region), patients responding” value [1] is reported as 4 of the 6 patients and the “initiation of HIV transcription (TAR region), patients responding” value [1] is reported as “all 6 patients”. For the same compound, the “induction of HIV LTR-driven transcription” value ([2]; J-Lat A1 and U1 cell cultures) was “dose-dependent manner”, the “reactivation of latent HIV by epigenetic modifiers” value ([2]; J-Lat A1 cells, 30 mM Na-Cro, 500 nM SAHA, 2 μM GSK343 or 5 μM AZA-dc, RT-qPCR) was “comparable capacity to reactivate latent HIV” and the “increase in HIV transcription compared to untreated controls” value ([2]; J-Lat A1 cells, Na-Cro at 40 mM) was 12 fold. For the same compound, the “HIV reactivation compared to the control” value ([2]; Na-Cro alone, AR12 experiment (FIG. 3, panel D)) was 8 fold and the “increase in ACSS2 expression” value (ACSS2) was 70 fold.
